Measured values published in patent US6235891A, “Glucocorticoid receptor agonist and decreased PP5” (South Alabama Medical Science Foundation, priority 1999, dated 2001).

Test system: PP5 mRNA
Test: Northern blot analysis of PP5 mRNA expression in A549 cells
Format: cell-based, human
Design: key to Activity class in initial screen (PP5 mRNA reduction): oligonucleotides giving a reduction of PP5 mRNA of approximately 50% or greater were considered active
Conditions: for Activity class in initial screen (PP5 mRNA reduction) / Percent Inhibition of PP5 mRNA: 300 nM oligonucleotide; for Percent Inhibition of PP5 mRNA: four hours, lipofectin, approximate, compared to control
Source text: The oligonucleotides shown in Table 1 were designed using the Genbank sequences HSSERTHRP (Genbank accession number X92121), HSRNAPPP5 (Genbank accession number X89416) and PPP5C (Genbank accession number U25174), synthesized and tested for inhibition of PP5 mRNA expression in A549 cells using a Northern blot assay. All oligonucleotides shown in Table 1 are chimeric oligonucleotides with central 2'-deoxy "gaps," which have phosphorothioate backbones, flanked on both sides by 2'-methoxyethoxy (2'-MOE) "wings" (shown in bold), which have phosphodiester backbones. All cytosines in the 2'-MOE wings are 5-methylcytosines.
In the initial screen, A549 cells were treated with oligonucleotides at a concentration of 300 nM oligonucleotide for four hours in the presence of […] lipofectin. Results were normalized and expressed as a percent of control. The effect of each oligonucleotide on levels of PP5 mRNA, expressed as approximate percent inhibition compared to control, is shown in Table 1. In this initial screen, oligonucleotides giving a reduction of PP5 mRNA of approximately 50% or greater were considered active. […] These sequences (SEQ ID NO: 1, 2, 3, 4, 6, 7 and 12, respectively, SEQ ID Nos shown in bold in Table 1) are therefore preferred.
These oligonucleotides were tested for their ability to reduce PP5 mRNA levels in A549 cells, using oligonucleotide doses of 25 to 500 nM.
The human lung tumor cell line A549 was obtained from the American Type Culture Collection (Rockville Md.) and were grown in DMEM (Gibco BRL, Gaithersburg Md.), supplemented with 10% fetal calf. Cells were seeded on 60 mm plates. When they reached 70% confluency, they were washed with DMEM and 1 ml of DMEM containing 15 μg/ml DOTMA/DOPE (Lipofectin®, GIBCO-BRL) and oligonucleotide at desired concentration was added. Duplicate dishes were used for each treatment condition. After 4 hours of treatment at 37°, cells were washed and cultured in fresh DMEM containing 10% fetal bovine serum for an additional 17 hours. Cells were then harvested and total RNA was extracted with TRIzol Reagent (GIBCO-BRL) according to manufacturer's protocol. Total RNA (20 μg) was fractionated on a 1% agarose gel containing formaldehyde, and transferred to a DURLON-UV (Stratagene) nylon membrane. Following UV crosslinking, the filters were hybridized with the appropriate protein phosphatase probe. The ^32 P-labeled human PP cDNA probes are generated with DECAPrime® DNA Labeling Kit (Ambion) according to the manufacturer's protocol. Hybridization was performed in a hybridization solution containing 50% formamide at 42° for 16 hours. This was followed by two low stringency washes (2×SSC) at room temperature and two high stringency washes (0.1×SSC/0.5% SDS) at 55° C. Hybridization signals were visualized by autoradiography, and filters were then stripped and reprobed with a ^32 P-labeled glyceraldehyde-3-phosphate dehydrogenase (GAPDH) probe to confirm equal loading. The densities of hybridization signals were measured with the NIH Image program (ImagePC).
The cells were harvested, and total RNA was extracted with TRIzol® Reagent according to the methods of the manufacturer. Total RNA (20 μg) was fractionated on 1% agarose gels containing formaldehyde and transferred to DURLON-UV nylon membranes (Stratagene). Following UV cross-linking, the filters were hybridized with a [α^32 P]probe for human PP5. The human PP5 cDNA probe was generated from the full length coding region of PP5 and [α^32 P]-dATP was labeled with DECAprime® DNA Labeling Kit according to the manufacturer's protocol. Hybridization was performed in the presence of 50% formamide, 0.1 M Pipes, 0.8 M NaCl, 5×Denhardt's solution, 100 μg/ml denatured herring sperm DNA, 1×10^6 cpm/ml [α-^32 P]-labeled probe and 10% dextran sulfate at 42° C. for 16 hours. Following hybridization, the membrane was subjected to two low stringency washes (2×SSC) at room temperature and then two high stringency washes (0.1×SSC/0.5% SDS) at 55° C. […]

Substance | Activity class in initial screen (PP5 mRNA reduction) | Percent Inhibition of PP5 mRNA | IC50 (doses of 25 to 500 nM, read-out: IC50 for reduction of PP5 mRNA levels)
ISIS 14494: chimeric 2'-MOE/deoxy gap antisense oligonucleotide to human PP5, coding; TTCAGAGCTCCATCAGCCGG, SEQ ID NO: 2 (sugars by position and backbone not given here; chimeric 2'-MOE wings with deoxy gap) | active | 52% | –
ISIS 14503: chimeric 2'-MOE/deoxy gap antisense oligonucleotide to human PP5, 3' UTR; GCCCCAGCTGCTCCACCTCC, SEQ ID NO: 11 (sugars by position and backbone not given here; chimeric 2'-MOE wings with deoxy gap) | – | 27% | –
ISIS 14502: chimeric 2'-MOE/deoxy gap antisense oligonucleotide to human PP5, 3' UTR; CCTACCCCCTCTGCAAACCT, SEQ ID NO: 10 (sugars by position and backbone not given here; chimeric 2'-MOE wings with deoxy gap) | – | 40% | –
ISIS 14500: chimeric 2'-MOE/deoxy gap antisense oligonucleotide to human PP5, coding; AGAGCCCTGGAGGTGGATGT, SEQ ID NO: 8 (sugars by position and backbone not given here; chimeric 2'-MOE wings with deoxy gap) | – | 41% | –
ISIS 14497: chimeric 2'-MOE/deoxy gap antisense oligonucleotide to human PP5, coding; TCCCCACATACTGTAATCTT, SEQ ID NO: 5 (sugars by position and backbone not given here; chimeric 2'-MOE wings with deoxy gap) | – | 11% | –
ISIS 14498: chimeric 2'-MOE/deoxy gap antisense oligonucleotide to human PP5, coding; GTACTTGGCCTTCACCTCAC, SEQ ID NO: 6 (sugars by position and backbone not given here; chimeric 2'-MOE wings with deoxy gap) | active | – | –
ISIS 14504: chimeric 2'-MOE/deoxy gap antisense oligonucleotide to human PP5, 3' UTR; GGGCCCTATTGCTTGAGTGG, SEQ ID NO: 12 (sugars by position and backbone not given here; chimeric 2'-MOE wings with deoxy gap) | active | – | –
ISIS 15523: chimeric PP5 antisense oligonucleotide, wider deoxy gap, uniformly phosphorothioate; GGGCCCTATTGCTTGAGTGG, SEQ ID NO: 12 (all phosphorothioate, sugars by position and methylation of C not given here; chimeric with deoxy gap) | – | – | ~100 nM
ISIS 14499: chimeric 2'-MOE/deoxy gap antisense oligonucleotide to human PP5, coding; CCAGGTTGTTCTCTTCCAAG, SEQ ID NO: 7 (sugars by position and backbone not given here; chimeric 2'-MOE wings with deoxy gap) | active | 62% | –
ISIS 14493: chimeric 2'-MOE/deoxy gap antisense oligonucleotide to human PP5, AUG; TCGCCCTCCGCCATCGCCAT, SEQ ID NO: 1 (sugars by position and backbone not given here; chimeric 2'-MOE wings with deoxy gap) | active | – | –
ISIS 14505: chimeric 2'-MOE/deoxy gap antisense oligonucleotide to human PP5, 3' UTR; CCCAGCCTAGCCCCACCATG, SEQ ID NO: 13 (sugars by position and backbone not given here; chimeric 2'-MOE wings with deoxy gap) | – | 23% | –
ISIS 14495: chimeric 2'-MOE/deoxy gap antisense oligonucleotide to human PP5, coding; GTAGGCCAGGCTGCGGTTGC, SEQ ID NO: 3 (sugars by position and backbone not given here; chimeric 2'-MOE wings with deoxy gap) | active | 66% | –
ISIS 14501: chimeric 2'-MOE/deoxy gap antisense oligonucleotide to human PP5, stop codon; CGCCCCGCCCGTCACCTCAC, SEQ ID NO: 9 (sugars by position and backbone not given here; chimeric 2'-MOE wings with deoxy gap) | – | 42% | –
ISIS 14496: chimeric 2'-MOE/deoxy gap antisense oligonucleotide to human PP5, coding; CCGCTGTACTCATCCTCAAT, SEQ ID NO: 4 (sugars by position and backbone not given here; chimeric 2'-MOE wings with deoxy gap) | active | 54% | –
